Experiments:
E. coli MurF = E. coli MurF (Escherichia coli, UniProt P11880); experiment: biochemical
MurD from E. coli = MurD from E. coli (Escherichia coli, UniProt P14900); experiment: Steady-state kinetic analysis on MurD; type: biochemical; settings: for Ki: Ki (µM)
Protocol: For compound 1, Ki values were determined against MurD from E. coli. Ki determinations were performed under similar conditions to those described for the MurD inhibition assay, where different concentration of one substrate and a fixed concentration of the other two were used. First, the concentration of UMA was varied (10, 20, 40, 80 µM) at fixed ATP (400 µM) and D-Glu (100 µM), then the concentration of D-Glu was varied (50, 100, 200, 400 µM) at fixed ATP (400 µM) and UMA (80 µM), and finally, the concentration of ATP was varied (100, 200, 400, 800 µM) at fixed UMA (80 µM) and D-Glu (100 µM). The concentrations of 1 were 0, 15, 30, 60, 90, 120, 180 and 250 µM. After a 15 min incubation, 100 µM Biomol green reagent was added, and the absorbance was read at 650 nm after 5 min. All of the experiments were run in triplicate. The data were analysed using the SigmaPlot 12.0 software. The initial velocities were fitted to competitive, non-competitive, uncompetitive and mixed enzyme inhibition. The Ki and mode of inhibition from the best ranking model were used, as provided by the software.

E. coli MurE = E. coli MurE (Escherichia coli, UniProt P22188); experiment: Malachite green inhibition assay, MurE; type: biochemical
Chain of E. coli MurE (P22188 whole entry): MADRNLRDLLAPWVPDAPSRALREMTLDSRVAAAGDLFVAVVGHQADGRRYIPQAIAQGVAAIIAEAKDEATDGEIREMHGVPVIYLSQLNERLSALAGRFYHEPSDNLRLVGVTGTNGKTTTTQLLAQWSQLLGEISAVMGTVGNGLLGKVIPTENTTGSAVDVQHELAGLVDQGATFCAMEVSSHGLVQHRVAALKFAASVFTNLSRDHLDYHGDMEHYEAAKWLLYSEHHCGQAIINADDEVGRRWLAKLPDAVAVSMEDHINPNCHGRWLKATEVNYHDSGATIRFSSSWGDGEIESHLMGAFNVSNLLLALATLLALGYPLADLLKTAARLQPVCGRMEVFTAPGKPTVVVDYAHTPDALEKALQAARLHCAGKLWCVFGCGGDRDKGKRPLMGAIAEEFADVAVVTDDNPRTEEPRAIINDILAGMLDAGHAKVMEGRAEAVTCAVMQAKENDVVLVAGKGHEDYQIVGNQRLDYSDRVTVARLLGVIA
Protocol: Inhibition of the Mur ligases was determined using the malachite green assay, with slight modifications.
MurE: 50 mM Hepes, pH 8.0, 15 mM MgCl2, 0.005% Triton X-114, 60 µM meso-diaminopimelic acid, 100 µM uridine-5′-diphosphate-N-acetylmuramoyl-L-alanine-D-glutamate, 1000 µM ATP, and purified E. coli MurE[27].
In all cases, the final concentration of DMSO was 5% (v/v). After incubation for 15 min at 37 °C, the enzyme reaction was terminated by addition of 100 µM Biomol green reagent, and the absorbance was measured at 650 nm after 5 min. All of the experiments were run in duplicate. Residual activities were calculated with respect to control assays without the tested compounds, but with the 5% DMSO carrier.
The published kinase inhibitor set compounds were evaluated for inhibition of MurC, D and F ligases from E. coli using the Malachite green assay, which detects orthophosphate generated during enzymatic reactions. To avoid non-specific inhibition due to aggregate formation, all of the compounds were tested in the presence of detergent (0.005% Triton-X114). The data are presented as the residual activities of these Mur ligases in the presence of 100 µM of each test compound (Supporting Information Table S1). […]. The IC50 values against MurC, D, E and F were determined for the selected hit compounds – one representative compound from each structural class was chosen: compound 1[33], aza-stilbene derivative; compound 2[34], alkynyl pyrimidine; compound 3[35], pyrazolo [1,5]-b]pyridazine; compound 4[36], phenoxypyrimidine; compound 5[37], 4,6-bis-anilino-1H-pyrrolo[2,3-pyrimidine (Table 1). […]. […] Among the hits, compounds for further mechanistic studies were chosen on the basis of their ligand efficiency. Ligand efficiency quantifies the molecular properties, particularly size and lipophilicity and is used as a selection criterion for structurally different compounds as more ‘efficient’ ligands have the potential to control for the inflation of these properties[38] Thus ligand efficiencies were calculated for the four hits (Supporting Information Table S2)[39]^,[40], and compound 1 was selected as the most promising for additional studies. Additionally, regarding the data of profiled compounds in large panels of human kinase assays[41] […] To provide sufficient amounts of compound 1 for kinetic and NMR studies, it was resynthesized according to the synthetic procedures (Figure 2) described in the literature.

[1] = Table S3, aza stilbene compounds
[2] = residual activity at 100 µM compound, Table 1

Chain of MurD from E. coli (P14900 whole entry): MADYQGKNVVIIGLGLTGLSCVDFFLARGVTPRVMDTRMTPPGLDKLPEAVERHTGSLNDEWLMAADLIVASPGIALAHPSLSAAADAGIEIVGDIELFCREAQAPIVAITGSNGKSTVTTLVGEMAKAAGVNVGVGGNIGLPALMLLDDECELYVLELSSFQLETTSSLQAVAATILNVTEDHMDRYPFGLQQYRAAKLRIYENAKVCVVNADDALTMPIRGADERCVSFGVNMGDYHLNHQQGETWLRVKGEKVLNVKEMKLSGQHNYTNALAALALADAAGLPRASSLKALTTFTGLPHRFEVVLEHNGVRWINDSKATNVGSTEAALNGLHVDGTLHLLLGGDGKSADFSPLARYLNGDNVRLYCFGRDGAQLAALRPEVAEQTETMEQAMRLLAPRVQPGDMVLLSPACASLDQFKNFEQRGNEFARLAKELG
Chain of E. coli MurF (P11880 whole entry): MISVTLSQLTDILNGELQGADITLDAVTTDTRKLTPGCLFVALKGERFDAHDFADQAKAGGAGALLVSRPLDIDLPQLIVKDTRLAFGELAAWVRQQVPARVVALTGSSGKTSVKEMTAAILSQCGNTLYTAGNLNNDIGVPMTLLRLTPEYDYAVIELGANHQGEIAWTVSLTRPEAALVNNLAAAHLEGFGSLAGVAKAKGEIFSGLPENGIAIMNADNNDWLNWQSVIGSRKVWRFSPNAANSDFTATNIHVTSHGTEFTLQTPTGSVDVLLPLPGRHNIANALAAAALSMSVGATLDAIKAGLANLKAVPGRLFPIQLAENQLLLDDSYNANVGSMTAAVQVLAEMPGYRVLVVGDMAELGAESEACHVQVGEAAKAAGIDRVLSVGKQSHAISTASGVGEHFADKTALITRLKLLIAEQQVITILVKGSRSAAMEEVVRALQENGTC

In the case of `Cc1cc(-c2ccco2)cc(C)c1/C=C/c1cncc(-c2nn[nH]n2)c1` [Compound 1], the remaining activity at 100 µM (E. coli MurF; 0.25 h, Table S1, PKIS screening, read-out: RA [%] at 100 µM MurF) is reported as 26%, the IC50 (E. coli MurF; Table 1) is reported as 59 µM and the “RA (%) MurF” value (E. coli MurF; [1]) is reported as 26%. The “LE (MurF)” value (E. coli MurF; ligand efficiency, LE = (1.37 × pIC50)/HAC) was 0.22, the “MurF RA [%]” value (E. coli MurF; [2]) was 26% and the Ki (MurD from E. coli; substrate ATP varied, fixed D-Glu 100 µM, UMA 80 µM) was 18.7 ± 2.6 µM. For the same compound, the Ki (MurD from E. coli; substrate D-Glu varied, fixed ATP 400 µM, UMA 80 µM) was 65.5 ± 4.9 µM, the Ki (MurD from E. coli; substrate UMA varied, fixed ATP 400 µM, D-Glu 100 µM) was 14.8 ± 11.2 µM and the Inhibition mechanism (MurD from E. coli; versus substrate ATP) was “Mixed (full)”. The Inhibition mechanism (MurD from E. coli; versus substrate D-Glu) was “Competitive (full)”, the Inhibition mechanism (MurD from E. coli; versus substrate UMA) was “Mixed (partial)” and the IC50 (E. coli MurE) was 79 µM. For the same compound, the “RA (%) MurE” value (E. coli MurE; [1]) was 49% and the “MurE RA [%]” value (E. coli MurE; [2]) was 49%.

— PMC6522912, “Evaluation of the published kinase inhibitor set to identify multiple inhibitors of bacterial ATP-dependent mur ligases” (Journal of Enzyme Inhibition and Medicinal Chemistry, 2019)
